What was measured:
Influenza A virus = assay: Antiviral activity against Influenza A virus PC/1/73 infected in human bronchial/tracheal epithelial cells after 5 days by fluorescence assay; assay type: functional, organism-based; conditions: PC/1/73, Epithelial cell, Trachea, 120 h
Influenza B virus = assay: Antiviral activity against Influenza B virus Lee/40 infected in human bronchial/tracheal epithelial cells after 5 days by fluorescence assay; assay type: functional, organism-based; conditions: B/Lee/1940, Epithelial cell, Trachea, 120 h

Structure (SMILES)	EC50 (Influenza A virus)	EC50 (Influenza B virus)
Nc1ncnn2c([C@@H]3O[C@H](CO)[C@@H](O)[C@H]3F)cnc12	0.9 µM	0.9 µM
Nc1nc(F)nn2c([C@@H]3O[C@H](CO)[C@@H](O)[C@H]3F)cnc12	> 100 µM	> 100 µM
CCOc1nc(N)nn2c([C@@H]3O[C@H](CO)[C@@H](O)[C@H]3F)cnc12	> 200 µM	> 200 µM
Nc1nc(N)c2ncc([C@@H]3O[C@H](CO)[C@@H](O)[C@H]3F)n2n1	21 µM	51 µM
